Test results published in patent US10694742B2, “Composition comprising a pesticide and a hydroxyalkyl polyoxylene glycol ether” (BASF SE, priority 2014, dated 2020).

Experiments:
[1] = system: Wheat plants; experiment: Uptake rate of pesticide into sprayed wheat leaves (HPLC-MS/MS); format: in vivo, Triticum aestivum variety Melon; conditions: 125 g/ha epoxiconazole, 125 g/ha fluxapyroxad, 250 g/ha adjuvant compound; 200 l/ha; leaves sampled after 8 days
Excerpt: Wheat plants (Triticum aestivum variety Melon) were cultivated in the greenhouse for 6 weeks up to development stage BBCH 39. The plants were transferred to an automatic lab track sprayer and they were sprayed with 125 g/ha epoxiconazole, 125 g/ha fluxapyroxad, and 250 g/ha of the respective Compound 1-5 according to the following parameters:
Nozzle type: Air injector, ID 120 02 (Lechler, Germany)
Subsequently to spraying, the plants were cultivated again in the greenhouse under ambient conditions. After 8 days samples of 10-15 treated leaves were cut off and weighed.
Leaves were cut into small pieces, transferred into glass bottles and washed with 50% methanol in demineralized water as washing medium for 5 min. Then, the washing medium was separated from the leaves. The leaves were washed again with washing medium for 5 min. […]
Finally, the leaves were transferred to a vial containing the extraction medium (75% methanol, 20% water and 5% HCl) and homogenized using a Polytron PT 6100 dispersing unit (Kinematica, CH) for 2 min. […] The residue was solubilized in methanol/water 50:50 and analyzed by HPLC-MS/MS.
An Agilent 1100 series HPLC coupled to an Applied Biosystems API 3000 triple quadrupole mass spectrometer, equipped with an electro spray ionization source, was used. […] According to the recovery rate the measured sample values were corrected. […]

[2] = system: Puccinia triticina; experiment: Greenhouse biological activity on infected wheat; format: in vivo, Puccinia triticina on wheat (species Kanzler); conditions: sprayed three days after infection, rated after ten days, three replicates
Description: The biological activity was assessed in a greenhouse on wheat (species “Kanzler”), which was infected with Puccinia triticina at two leafes stage and incubated for three days at high humidity. The plants were sprayed (spray volume 200 l/ha) with a composition comprising 50 ppm (10 g/ha or 2.5 g/ha dose rate) epoxiconazole and 100 ppm (20 g/ha) of the respective Compounds 1-7. In the comparative example no adjuvant was added. The plants were further cultivated for ten days at 20-24° C. and 60-90% relative humidity. Finally, the percentage of the infected leaf area (pustules) was visually inspected. Each value was based on three replicates.

[3] = system: Septoria and Brown rust; experiment: Field trial winter wheat, yield; format: in vivo, winter wheat (var. Akteur); conditions: for Yield Winter Wheat, Relative Yield (%): half rate (N/2) Epoxiconazole SC 125 applied twice at BBCH 32 and 51, adjuvant 150 ml/ha in tank mix, comparative experiment = 100.0
Description: (§1) Field studies were conducted on a Parabraunerde soil in accordance with GEP in southern Germany on commercially planted winter wheat (var. Akteur) and winter rapeseed (var. Genie), respectively, exposed to a maritime climate. The standard experimental design was a randomized complete block with 4 replicates. There was no artificial infestation. Fungicides were applied at their label rate (N) and when mixed with adjuvants in the tank, at half rate (N/2). Dose rate of adjuvants was 150 ml/ha. Efficacy was measured by yield in dt/ha. Following the analysis of variance a mean separation test (Student-Newman-Keuls) was applied at a 5% significance level. All treatments were fully selective.
Spray volume was 200 l/ha applied with an AirMix 110-03 nozzle at a pressure of 1.9 bar. Plots were in 2.5 m by 7 m large. Epoxiconazole SC 125 with a dispersing additive (based on naphthalene sulfonic acid formaldehyde condensation product, sodium salt) was applied twice at the growth stages (BBCH) 32 and 51. During the course of trial, there was a natural infestation of Septoria and Brown rust. In each treatment, the dose rate of adjuvants was 150 ml/ha.
(§2) For a quantitative measure, the yield of each treatment was determined.

[4] = system: Sclerotinia sp.; experiment: Field trial rapeseed, yield; format: in vivo, winter rapeseed (var. Genie); conditions: half rate (N/2) Cantus Gold SC applied at BBCH 51; adjuvant 150 ml/ha in tank mix; comparative experiment = 100.0
Description: as §1
Spray volume was 250 l/ha applied with an AirMix 110-03 nozzle at a pressure of 2.1 bar. Plots were in 3 m by 7 m large. Cantus® Gold SC (200 g/l Boscalid and 200 g/l Dimoxystrobin with a dispersing additive based on benzenesulfonic acid, hydroxy-, polymer with formaldehyde, phenol and urea, sodium salt) was applied at the growth stage (BBCH) 51 of rapeseed on a Parabraunerde soil. During the course of trial, there was a natural infestation of Sclerotinia sp. In each treatment, the dose rate of adjuvants was 150 ml/ha.
as §2

Row | Compound | Epoxiconazole Uptake Rate [%] [1] [%] | Infected leaf area 2,5 g/ha dose rate ([2]; epoxiconazole 2,5 g/ha + 100 ppm (20 g/ha) adjuvant compound) [%] | Infected leaf area 10 g/ha dose rate ([2]; epoxiconazole 10 g/ha + 100 ppm (20 g/ha) adjuvant compound) [%] | Yield Winter Wheat, Relative Yield (%) [3] [%] | Yield Rapeseed, Relative Yield (%) [4] [%] | Improvement of yield of the half rate (N/2) compared to N/2 alone, wheat ([3]; N/2 epoxiconazole + adjuvant 150 ml/ha, Student-Newman-Keuls, 5% significance level)
1 | Fc1ccc([C@]2(Cn3cncn3)O[C@H]2c2ccccc2Cl)cc1 (racemic) [epoxiconazole] | 19 | 78 | 48 | 103.5 |  | 
2 | CCCCCCCCC(O)COCCOCCOCCOCCOCCOCCOCCOCCOCCOCC(CC)CCCC (stereo not shown) [Compound C] |  |  |  | 109.4 | 104.6 | significant improvements
